Holding throughout (type): cell-based
In one test the target is T1, Y1R (Homo sapiens, UniProt P25929).
T1 sequence (P25929 1-384): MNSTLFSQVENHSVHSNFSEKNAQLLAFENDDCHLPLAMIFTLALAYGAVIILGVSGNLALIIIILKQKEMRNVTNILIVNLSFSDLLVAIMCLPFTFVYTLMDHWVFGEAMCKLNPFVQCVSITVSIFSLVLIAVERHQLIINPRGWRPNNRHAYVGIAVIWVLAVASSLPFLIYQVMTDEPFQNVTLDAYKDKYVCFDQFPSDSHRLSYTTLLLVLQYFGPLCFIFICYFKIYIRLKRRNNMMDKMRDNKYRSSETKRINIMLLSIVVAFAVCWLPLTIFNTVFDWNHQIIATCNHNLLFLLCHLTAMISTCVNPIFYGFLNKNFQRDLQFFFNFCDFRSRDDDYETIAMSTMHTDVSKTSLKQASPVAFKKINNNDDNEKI
The test can be described thus: CaFlux Assay (FLIPR), Y1R.

Another test deals with Y4R (Homo sapiens, UniProt P50391). Put plainly: CaFlux Assay (FLIPR), Y4R.
Sequence of Y4R (P50391 whole entry): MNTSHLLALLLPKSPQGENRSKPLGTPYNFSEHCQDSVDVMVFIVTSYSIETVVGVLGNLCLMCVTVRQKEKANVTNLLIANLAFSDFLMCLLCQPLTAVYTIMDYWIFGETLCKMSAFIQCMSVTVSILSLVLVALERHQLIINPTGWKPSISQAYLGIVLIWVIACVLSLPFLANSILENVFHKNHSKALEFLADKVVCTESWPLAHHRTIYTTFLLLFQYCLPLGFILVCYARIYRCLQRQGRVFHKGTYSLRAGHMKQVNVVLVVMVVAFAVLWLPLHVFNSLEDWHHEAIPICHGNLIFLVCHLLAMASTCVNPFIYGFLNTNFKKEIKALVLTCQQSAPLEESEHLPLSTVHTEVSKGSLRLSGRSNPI
A further test concerns the target T2, Y5R (Homo sapiens, UniProt Q15761).
T2 sequence (Q15761 1-445): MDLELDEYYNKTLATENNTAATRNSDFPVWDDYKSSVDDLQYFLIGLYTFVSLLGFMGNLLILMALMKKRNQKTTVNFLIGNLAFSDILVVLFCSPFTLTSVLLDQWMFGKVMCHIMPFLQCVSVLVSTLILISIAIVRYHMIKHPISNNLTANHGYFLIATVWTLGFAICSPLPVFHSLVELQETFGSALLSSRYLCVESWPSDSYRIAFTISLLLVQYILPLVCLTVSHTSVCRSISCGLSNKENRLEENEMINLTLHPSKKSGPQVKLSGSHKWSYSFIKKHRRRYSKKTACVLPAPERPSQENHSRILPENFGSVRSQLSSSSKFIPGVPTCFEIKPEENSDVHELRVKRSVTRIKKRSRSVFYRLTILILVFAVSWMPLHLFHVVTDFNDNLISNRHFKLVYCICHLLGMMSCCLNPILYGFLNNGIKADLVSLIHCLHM
The test can be described thus: CaFlux Assay (FLIPR), Y5R.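 On Emax: percent of the maximal response of the positive control agonist.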 As to conditions: for Emax: read-out: Y5R FLIPR, percentage in parentheses under the EC50.

The target in test [1] is T3, hNPY2R (Homo sapiens, UniProt P49146).
T3 sequence (P49146 1-381): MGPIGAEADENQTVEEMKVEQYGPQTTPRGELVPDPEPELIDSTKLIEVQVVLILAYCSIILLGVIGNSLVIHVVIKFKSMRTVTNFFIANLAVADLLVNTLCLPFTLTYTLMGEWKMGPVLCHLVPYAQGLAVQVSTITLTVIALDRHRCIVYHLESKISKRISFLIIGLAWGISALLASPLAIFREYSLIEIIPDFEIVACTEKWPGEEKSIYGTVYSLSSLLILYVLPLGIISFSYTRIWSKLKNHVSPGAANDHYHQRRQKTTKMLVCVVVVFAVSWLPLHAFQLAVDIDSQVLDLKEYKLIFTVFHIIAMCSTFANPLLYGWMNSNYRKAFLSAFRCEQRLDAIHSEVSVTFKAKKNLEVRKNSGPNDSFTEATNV
Put plainly: cAMP Agonist Assay, HEK293/hNPY2R cells. Further details: expressed in transfected cells; host or cells: HEK293/hNPY2R (G418 selection).
Method: On the first day, medium was discarded, and the monolayer cells were washed with 10 mL PBS per flask (T225). […] The flask was gently tapped and the cell suspension was pooled. Each flask was rinsed with 10 mL plating medium and centrifuged at 1000 rpm for 5 min. The suspension was pooled and counted. The suspension was resuspended in plating medium at a density of 2.0×10^5 cells/mL for HEK293/hNPY2R. 50 microliters of cells (HEK293/hNPY2R-10,000 cells/well) were transferred into the 384-well plate using Multi-drop dispenser. The plates were incubated at 37° C. overnight. […] The media and reagents were allowed to come to room temperature. Before the dilutions were prepared, the stock solution of stimulating compound in dimethyl sulphoxide (DMSO, Sigma, cat #D2650) was allowed to warm up to 32 C for 5-10 min. […] The cell medium was tapped off with a gentle inversion of the cell plate on a paper towel. 50 μL of stimulation medium was placed per well (each concentration done in four replicates). The plates were incubated at room temperature for 30 min, and the cells were checked under a microscope for toxicity. After 30 minutes of treatment, the stimulation media was discarded and 50 mL/well of Assay Lysis Buffer (provided in the Tropix kit) was added. The plates were incubated for 45 min@37° C. 20 μL of the lysate was transferred from stimulation plates into the pre-coated antibody plates (384-well) from the Tropix kit. 10 μL of AP conjugate and 20 μL of anti-cAMP antibody was added. The plates were incubated at room temperature while shaking for 1 hour. The plates were then washed 5 times with Wash Buffer, 70 μL per well for each wash. The plates were tapped to dry. 30 μL/well of CSPD/Saphire-II RTU substrate/enhancer solution was added and incubated for 45 min @ RT (shake). Signal for 1 sec/well in a Luminometer.

Test [2] addresses T3, hNPY2R. The test can be described thus: CaFlux Assay (FLIPR), Y2R. Details: expressed in transfected cells; host or cells: HEK-293 stably expressing G protein chimera Gaqi9.

Regarding `CCCCCCCCCCCCCCCCCCCC(=O)NCCOCCOCCOCCOCCC(=O)NCCCC[C@H](NC(=O)[C@@H](N)[C@@H](C)CC)C(=O)N1CCN(c2ccc3ncn(CC(=O)N[C@@H](CCCNC(=N)N)C(=O)N[C@@H](Cc4c[nH]cn4)C(=O)N[C@@H](Cc4ccc(O)cc4)C(=O)N[C@@H](CC(C)C)C(=O)N[C@@H](CC(N)=O)C(=O)N[C@@H](Cc4c[nH]c5ccccc45)C(=O)N[C@H](C(=O)N[C@H](C(=O)N[C@@H](CCCNC(=N)N)C(=O)N[C@@H](CCC(N)=O)C(=O)N(C)[C@@H](CCCNC(=N)N)C(=O)N[C@@H](Cc4ccc(O)cc4)C(N)=O)[C@@H](C)O)C(C)C)c(=O)c3c2)CC1` [Example 33], the EC50 is over 5000 nM at Y1R; over 5000 nM at Y4R; 241 nM at Y5R; 0.13 nM on hNPY2R [1]; 1.08 nM on hNPY2R [2]. Also, the Emax on Y5R was found to be 53%.
Take `CCCCCCCCCCCCCCCCCCCC(=O)NCCCCCC(=O)NCCCC[C@H](NC(=O)[C@@H](N)[C@@H](C)CC)C(=O)N1CCN(c2ccc3ncn(CC(=O)N[C@@H](CCCNC(=N)N)C(=O)N[C@@H](Cc4c[nH]cn4)C(=O)N[C@@H](Cc4ccc(O)cc4)C(=O)N[C@@H](CC(C)C)C(=O)N[C@@H](CC(N)=O)C(=O)N[C@@H](Cc4c[nH]c5ccccc45)C(=O)N[C@H](C(=O)N[C@H](C(=O)N[C@@H](CCCNC(=N)N)C(=O)N[C@@H](CCC(N)=O)C(=O)N(C)[C@@H](CCCNC(=N)N)C(=O)N[C@@H](Cc4ccc(O)cc4)C(N)=O)[C@@H](C)O)C(C)C)c(=O)c3c2)CC1` [Example 30]: the EC50 on Y1R was over 5000 nM; on Y4R, over 5000 nM; on Y5R it was 306 nM; on hNPY2R [1] it was 0.14 nM; at hNPY2R [2], 0.96 nM. The Emax on Y5R is 28%.
Turning to `CCCCCCCCCCCCCCCC(=O)NCCC(=O)N[C@@H](CCC(=O)NCCCC[C@H](NC(=O)[C@@H](N)[C@@H](C)CC)C(=O)N1CCN(c2ccc3ncn(CC(=O)N[C@@H](CCCNC(=N)N)C(=O)N[C@@H](Cc4c[nH]cn4)C(=O)N[C@@H](Cc4ccc(O)cc4)C(=O)N[C@@H](CC(C)C)C(=O)N[C@@H](CC(N)=O)C(=O)N[C@@H](Cc4c[nH]c5ccccc45)C(=O)N[C@H](C(=O)N[C@H](C(=O)N[C@@H](CCCNC(=N)N)C(=O)N[C@@H](CCC(N)=O)C(=O)N(C)[C@@H](CCCNC(=N)N)C(=O)N[C@@H](Cc4ccc(O)cc4)C(N)=O)[C@@H](C)O)C(C)C)c(=O)c3c2)CC1)C(=O)O` [Example 26], the EC50 at Y1R was over 5000 nM; at Y4R it was over 5000 nM; on Y5R, 129 nM; on hNPY2R [1], 0.15 nM; at hNPY2R [2] it was 0.045 nM. On Y5R, the Emax came to 70%.
Take `CCCCCCCCCCCCCCCC(=O)N[C@H](C(=O)N[C@@H](CCCCN)C(=O)N1CCN(c2ccc3ncn(CC(=O)N[C@@H](CCCNC(=N)N)C(=O)N[C@@H](Cc4c[nH]cn4)C(=O)N[C@@H](Cc4ccc(O)cc4)C(=O)N[C@@H](CC(C)C)C(=O)N[C@@H](CC(N)=O)C(=O)N[C@@H](Cc4c[nH]c5ccccc45)C(=O)N[C@H](C(=O)N[C@H](C(=O)N[C@@H](CCCNC(=N)N)C(=O)N[C@@H](CCC(N)=O)C(=O)N(C)[C@@H](CCCNC(=N)N)C(=O)N[C@@H](Cc4ccc(O)cc4)C(N)=O)[C@@H](C)O)C(C)C)c(=O)c3c2)CC1)[C@@H](C)CC` [Example 15]: the EC50 is over 5000 nM at Y1R; 1360 nM at Y4R; over 5000 nM at Y5R; 0.97 nM at hNPY2R [1]; 1.03 nM at hNPY2R [2].
